Paper PMC7516806, “Hybrid Antimicrobial Peptide Targeting Staphylococcus aureus and Displaying Anti-infective Activity in a Murine Model” (Frontiers in Microbiology, 2020)
Converted amounts (≈) assume the structure as drawn. Positions of bridges follow the written chain, without caps; N, C: chain ends. Residues, ends and D or L forms follow the SMILES beside them. No end group written: not given here.

Assays:
E. coli 25922 = experiment: MIC, modified microtiter dilution; assay type: cell-based, Escherichia coli; conditions: MHB, 2–7 × 10^5 CFU/ml, 37°C, 24 h, lowest concentration with no turbidity, at least three independent repeats
Excerpt: (§1) The experiment was repeated at least three times independently.

E. coli UB1005 = experiment: MIC, modified microtiter dilution; assay type: cell-based, Escherichia coli; conditions: MHB, 2–7 × 10^5 CFU/ml, 37°C, 24 h, no turbidity, at least three independent repeats
Excerpt: as §1

E. coli K88 = conditions: MHB, 2–7 × 10^5 CFU/ml, 37°C, 24 h, no turbidity, at least three independent repeats
Excerpt: (§2) The bacterial strains Escherichia coli (E. coli) ATCC 25922, E. coli K88, E. coli K99, Pseudomonas aeruginosa (P. aeruginosa) ATCC 27853, Escherichia coli (E. coli) UB1005, Salmonella typhimurium 14028, Salmonella pullorum (S. pullorum) C7913, S. typhimurium C7731, S. aureus ATCC 29213, MRSA ATCC 43300, and S. aureus ATCC 25923 were obtained from the College of Veterinary Medicine, Northeast Agricultural University, China. Lactobacillus plantarum (L. plantarum) 8014, Lactobacillus rhamnosus (L. rhamnosus) 7469, L. rhamnosus 1.0911, L. rhamnosus 1.0936, and L. rhamnosus 1.0385 were obtained from the Key Laboratory of Food College, Northeast Agricultural University, China.
(§3) As in a previous study, the antimicrobial activities of the AMPs were investigated using a modified standard microtiter dilution method ([Dong et al., 2014]). The peptides were serially diluted with a solution containing 0.01% acetic acid and 0.2% bovine serum albumin (BSA, Sigma) in 96-well plates. The bacteria grew to the mid-log phase and then were dissolved in MHB at concentration of 2–7 × 10^5 CFU/ml. The peptides and bacterial solution were mixed in equal volume in a 37°C incubator for 24 h. […] Mueller-Hinton broth with microorganisms was used as the positive control, and the pure broth was used as the negative control. The experiment was repeated at least three times independently.

E. coli K99 = conditions: MHB, 2–7 × 10^5 CFU/ml, 37°C, 24 h, no turbidity, at least three independent repeats
Excerpt: as §2, §3

S. typhimurium 14028 = experiment: MIC, modified microtiter dilution; assay type: cell-based, Salmonella typhimurium; conditions: MHB, 2–7 × 10^5 CFU/ml, 37°C, 24 h, no turbidity, at least three independent repeats
Excerpt: as §1

S. typhimurium 7731 = experiment: MIC, modified microtiter dilution; assay type: cell-based, Salmonella typhimurium; conditions: MHB, 2–7 × 10^5 CFU/ml, 37°C, 24 h, no turbidity, at least three independent repeats
Excerpt: as §1

S. pullorum 7913 = experiment: MIC, modified microtiter dilution; assay type: cell-based, Salmonella pullorum; conditions: MHB, 2–7 × 10^5 CFU/ml, 37°C, 24 h, no turbidity, at least three independent repeats
Excerpt: as §1

P. aeruginosa 27853 = experiment: MIC, modified microtiter dilution; assay type: cell-based, Pseudomonas aeruginosa; conditions: MHB, 2–7 × 10^5 CFU/ml, 37°C, 24 h, no turbidity, at least three independent repeats
Excerpt: as §1

S. aureus 25923 = experiment: MIC, modified microtiter dilution; assay type: cell-based, Staphylococcus aureus; conditions: MHB, 2–7 × 10^5 CFU/ml, 37°C, 24 h, no turbidity, at least three independent repeats
Excerpt: as §1

S. aureus 29213 [1] = experiment: MIC, modified microtiter dilution; assay type: cell-based, Staphylococcus aureus; conditions: MHB, 2–7 × 10^5 CFU/ml, 37°C, 24 h, no turbidity, at least three independent repeats
Excerpt: as §1

MRSA 43300 = assay type: cell-based, Staphylococcus aureus; conditions: MHB, 2–7 × 10^5 CFU/ml, 37°C, 24 h, no turbidity, at least three independent repeats
Excerpt: as §1

L. plantarum 8014 = experiment: MIC, modified microtiter dilution; assay type: cell-based, Lactobacillus plantarum; conditions: 2–7 × 10^5 CFU/ml, 37°C, 24 h, no turbidity, at least three independent repeats
Excerpt: as §1

L. rhamnosus 1.0385 = experiment: MIC, modified microtiter dilution; assay type: cell-based, Lactobacillus rhamnosus; conditions: 2–7 × 10^5 CFU/ml, 37°C, 24 h, no turbidity, at least three independent repeats
Excerpt: as §1

L. rhamnosus 1.0911 = experiment: MIC, modified microtiter dilution; assay type: cell-based, Lactobacillus rhamnosus; conditions: 2–7 × 10^5 CFU/ml, 37°C, 24 h, no turbidity, at least three independent repeats
Excerpt: as §1

L. rhamnosus 1.0936 = experiment: MIC, modified microtiter dilution; assay type: cell-based, Lactobacillus rhamnosus; conditions: 2–7 × 10^5 CFU/ml, 37°C, 24 h, no turbidity, at least three independent repeats
Excerpt: as §1

L. rhamnosus 7469 = experiment: MIC, modified microtiter dilution; assay type: cell-based, Lactobacillus rhamnosus; conditions: 2–7 × 10^5 CFU/ml, 37°C, 24 h, no turbidity, at least three independent repeats
Excerpt: as §1

S. aureus 29213 [2] = experiment: MIC in the presence of physiological salts; assay type: cell-based, Staphylococcus aureus; conditions: three independent repeats; for MIC against S. aureus 29213, FeCl3: 4 μM FeCl3; for MIC against S. aureus 29213, FeCl3 / MIC against S. aureus 29213, NH4Cl / MIC against S. aureus 29213, ZnCl2 / MIC against S. aureus 29213, MgCl2 / MIC against S. aureus 29213, CaCl2 / MIC against S. aureus 29213, KCl / MIC against S. aureus 29213, NaCl: unit not given in Table 4; for MIC against S. aureus 29213, NH4Cl: 6 μM NH4Cl; for MIC against S. aureus 29213, ZnCl2: 8 μM ZnCl2; for MIC against S. aureus 29213, MgCl2: 1 mM MgCl2; for MIC against S. aureus 29213, CaCl2: 2 mM CaCl2; for MIC against S. aureus 29213, KCl: 4.5 mM KCl; for MIC against S. aureus 29213, NaCl: 150 mM NaCl
Protocol: as §1
The MIC of peptides was determined in the presence of salts at physiological concentrations (150 mM NaCl, 4.5 mM KCl, 6 μM NH4Cl, 8 μM ZnCl2, 1 mM MgCl2, 2 mM CaCl2, and 4 μM FeCl3) as described previously ([Dong et al., 2014]). All experiments were performed three times independently.

[3] = test system: panel of bacterial species; experiment: MIC against a panel of bacterial species (summary statements); assay type: cell-based
Excerpt: as §1

RAW 264.7 cells = experiment: Cytotoxicity, MTT dye reduction assay; assay type: cell-based, murine; conditions: highest concentration of 128 μM, 4 h, three independent repeats
Protocol: The cytotoxicity of peptides was determined by healthy human erythrocytes and the murine macrophage cell line RAW 264.7 via a hemolysis assay and MTT dye reduction assay, respectively ([Wang et al., 2018]). In the hemolysis assay, fresh hRBCs from healthy people were centrifuged for 5 min at 1,000 × g and then washed three times with PBS (pH = 7.2). The 100 μL erythrocyte suspension and peptides were incubated for 1.5 h in an incubator at 37°C. The 96-well plates were centrifuged at 1,000 × g for 5 min, and the supernatants were carefully aspirated. The absorbance at 570 nm indicated the leakage of hemoglobin. The hRBCs in the PBS sample was used as the negative control, and 0.1% Triton X-100 addition served as the positive control. In the MTT dye reduction assay, 1.0–2.0 × 10^5 cells were plated in 96-well plates and then treated with various concentrations of peptides for 4 h at 37°C in a 5% CO2 incubator. Subsequently, 50 μL of MTT was added to the plated cells at a final concentration of 0.5 mg/mL and incubated for 4 h. Then, the cells were centrifuged at 1000 × g for 5 min, and the supernatants were discarded. Formazan crystals were dissolved in 150 μL of DMSO, and the OD570 nm was measured using a microplate reader (TECAN GENios F129004; TECAN, Austria). The experiment was repeated three times independently.

Compound	MIC E. coli 25922 (E. coli 25922)	MIC E. coli UB1005 (E. coli UB1005)	MIC E. coli K88 (E. coli K88)	MIC E. coli K99 (E. coli K99)	MIC S. typhimurium 14028 (S. typhimurium 14028)	MIC S. typhimurium 7731 (S. typhimurium 7731)	MIC S. pullorum 7913 (S. pullorum 7913)	MIC P. aeruginosa 27853 (P. aeruginosa 27853)	MIC S. aureus 25923 (S. aureus 25923)	MIC S. aureus 29213 (S. aureus 29213 [1])	MIC MRSA 43300 (MRSA 43300)	MIC L. plantarum 8014 (L. plantarum 8014)	MIC L. rhamnosus 1.0385 (L. rhamnosus 1.0385)	MIC L. rhamnosus 1.0911 (L. rhamnosus 1.0911)	MIC L. rhamnosus 1.0936 (L. rhamnosus 1.0936)	MIC L. rhamnosus 7469 (L. rhamnosus 7469)	MIC against S. aureus 29213, FeCl3 (S. aureus 29213 [2])	MIC against S. aureus 29213, NH4Cl (S. aureus 29213 [2])	MIC against S. aureus 29213, ZnCl2 (S. aureus 29213 [2])	MIC against S. aureus 29213, MgCl2 (S. aureus 29213 [2])	also measured
C[C@@H]1NC(=O)[C@@H](N)CSSC[C@@H](C(=O)N[C@@H](CCCNC(=N)N)C(=O)N[C@@H](Cc2c[nH]c3ccccc23)C(=O)N[C@@H](Cc2c[nH]c3ccccc23)C(=O)N[C@@H](Cc2c[nH]c3ccccc23)C(=O)N[C@@H](CCCNC(=N)N)C(=O)N[C@@H](CCCNC(=N)N)C(N)=O)NC(=O)[C@H](Cc2ccccc2)NC(=O)[C@H](Cc2ccc(O)cc2)NC(=O)[C@H](CO)NC1=O [Peptide S1] (H-CASYFCRWWWRR-NH2; disulfide 1-6; N-terminus assumed)	8 µM (≈ 13.7 µg/mL)	8 µM (≈ 13.7 µg/mL)	32 µM (≈ 54.9 µg/mL)	4 µM (≈ 6.87 µg/mL)	64 µM (≈ 110 µg/mL)	32 µM (≈ 54.9 µg/mL)	8 µM (≈ 13.7 µg/mL)	>64 µM	4 µM (≈ 6.87 µg/mL)	4 µM (≈ 6.87 µg/mL)	4 µM (≈ 6.87 µg/mL)	>64 µM	>64 µM	>64 µM	>64 µM	>64 µM	8 µM	4 µM	1 µM	4 µM	MIC against S. aureus 29213, CaCl2 (S. aureus 29213 [2]): 8 µM; MIC against S. aureus 29213, KCl (S. aureus 29213 [2]): 4 µM; MIC against S. aureus 29213, NaCl (S. aureus 29213 [2]): 4 µM; concentrations suppressing growth of tested Gram-negative bacteria ([3]; all tested Gram-negative bacteria except P. aeruginosa 27853): 4 to 64 µM; RAW 264.7 cell survival rate (RAW 264.7 cells): 86%
C[C@@H]1NC(=O)[C@@H](N)CSSC[C@@H](C(N)=O)NC(=O)[C@H](Cc2ccccc2)NC(=O)[C@H](Cc2ccc(O)cc2)NC(=O)[C@H](CO)NC1=O [Peptide S5] (H-CASYFC-NH2; disulfide 1-6; N-terminus and C-terminus assumed)																					MIC against S. aureus 29213 (column MIC, no added salt) (S. aureus 29213 [2]; control without added salt, unit not printed in Table 4, μM as in Table 3): >64 µM; antimicrobial activity against the tested microorganisms ([3]; all tested bacteria, up to the highest concentration measured): failed to show antimicrobial activity
RWWWAA-NH2 [Peptide S8]	>64 µM	>64 µM	>64 µM	>64 µM	>64 µM	>64 µM	>64 µM	>64 µM	>64 µM	>64 µM	>64 µM	>64 µM	>64 µM	>64 µM	>64 µM	>64 µM	>64 µM	>64 µM	64 µM	>64 µM	MIC against S. aureus 29213, CaCl2 (S. aureus 29213 [2]): >64 µM; MIC against S. aureus 29213, KCl (S. aureus 29213 [2]): >64 µM; MIC against S. aureus 29213, NaCl (S. aureus 29213 [2]): >64 µM; RAW 264.7 cell survival rate (RAW 264.7 cells): 85%
RWWWRR-NH2 [Peptide S6]	32 µM	32 µM	32 µM	32 µM	>64 µM	>64 µM	>64 µM	>64 µM	16 µM	16 µM	8 µM	>64 µM	>64 µM	>64 µM	>64 µM	>64 µM	32 µM	16 µM	4 µM	32 µM	MIC against S. aureus 29213, CaCl2 (S. aureus 29213 [2]): 32 µM; MIC against S. aureus 29213, KCl (S. aureus 29213 [2]): 16 µM; MIC against S. aureus 29213, NaCl (S. aureus 29213 [2]): 8 µM; RAW 264.7 cell survival rate (RAW 264.7 cells): 94%
